# Measured values from ChEMBL document CHEMBL1150930, “Metabolism of rosmarinic acid in rats” (J Nat Prod, 1998).
# What was measured:
# Design in all cases: dose 200 mg/kg, route oral
# Rattus norvegicus [1] = assay: Metabolic stability in Sprague-Dawley rat assessed as urinary excretion of trans-caffeic acid level at 200 mg/kg, po after 0 to 72 hrs by HPLC; type: ADME, organism-based, Urine; details: in vivo
# Rattus norvegicus [2] = assay: Metabolic stability in Sprague-Dawley rat assessed as urinary excretion of trans-caffeic acid level at 200 mg/kg, po after 0 to 8 hrs by HPLC; type: ADME, organism-based, Urine; details: in vivo
# Rattus norvegicus [3] = assay: Metabolic stability in Sprague-Dawley rat assessed as urinary excretion of trans-caffeic acid 4-O-sulfate level at 200 mg/kg, po after 0 to 12 hrs by HPLC; type: ADME, organism-based, Urine; details: in vivo
# Rattus norvegicus [4] = assay: Metabolic stability in Sprague-Dawley rat assessed as urinary excretion of trans-m-coumaric acid level at 200 mg/kg, po after 0 to 12 hrs by HPLC; type: ADME, organism-based, Urine; details: in vivo
# Rattus norvegicus [5] = assay: Metabolic stability in Sprague-Dawley rat assessed as urinary excretion of m-hydroxyphenyl-propionic acid level at 200 mg/kg, po after 0 to 12 hrs by HPLC; type: ADME, organism-based, Urine; details: in vivo
# Rattus norvegicus [6] = assay: Metabolic stability in Sprague-Dawley rat assessed as urinary excretion of total metabolites at 200 mg/kg, po after 0 to 12 hrs by HPLC; type: ADME, organism-based, Urine; details: in vivo
# [7] = Metabolic stability in Sprague-Dawley rat assessed as urinary excretion of unchanged drug level at 200 mg/kg, po after 0 to 72 hrs by HPLC; type: ADME, organism-based; details: urine, read-out: Activity
# Rattus norvegicus [8] = assay: Metabolic stability in Sprague-Dawley rat assessed as urinary excretion of m-hydroxyphenyl-propionic acid level at 200 mg/kg, po after 0 to 8 hrs by HPLC; type: ADME, organism-based, Urine; details: in vivo
# Rattus norvegicus [9] = assay: Metabolic stability in Sprague-Dawley rat assessed as urinary excretion of trans-m-coumaric acid 3-O-sulfate level at 200 mg/kg, po after 0 to 12 hrs by HPLC; type: ADME, organism-based, Urine; details: in vivo
# Rattus norvegicus [10] = assay: Metabolic stability in Sprague-Dawley rat assessed as urinary excretion of trans-caffeic acid level at 200 mg/kg, po after 0 to 36 hrs by HPLC; type: ADME, organism-based, Urine; details: in vivo
# Rattus norvegicus [11] = assay: Metabolic stability in Sprague-Dawley rat assessed as urinary excretion of trans-caffeic acid level at 200 mg/kg, po after 0 to 12 hrs by HPLC; type: ADME, organism-based, Urine; details: in vivo
# Rattus norvegicus [12] = assay: Metabolic stability in Sprague-Dawley rat assessed as urinary excretion of total metabolites at 200 mg/kg, po after 0 to 48 hrs by HPLC; type: ADME, organism-based, Urine; details: in vivo
# Rattus norvegicus [13] = assay: Metabolic stability in Sprague-Dawley rat assessed as urinary excretion of trans-caffeic acid level at 200 mg/kg, po after 0 to 24 hrs by HPLC; type: ADME, organism-based, Urine; details: in vivo
# Rattus norvegicus [14] = assay: Metabolic stability in Sprague-Dawley rat assessed as urinary excretion of total metabolites at 200 mg/kg, po after 0 to 4 hrs by HPLC; type: ADME, organism-based, Urine; details: in vivo
# [15] = Metabolic stability in Sprague-Dawley rat assessed as urinary excretion of unchanged drug level at 200 mg/kg, po after 0 to 12 hrs by HPLC; type: ADME, organism-based; details: urine, read-out: Activity
# Rattus norvegicus [16] = assay: Metabolic stability in Sprague-Dawley rat assessed as urinary excretion of trans-caffeic acid 4-O-sulfate level at 200 mg/kg, po after 0 to 8 hrs by HPLC; type: ADME, organism-based, Urine; details: in vivo
# Rattus norvegicus [17] = assay: Metabolic stability in Sprague-Dawley rat assessed as urinary excretion of trans-ferulic acid 4-O-sulfate level at 200 mg/kg, po after 0 to 4 hrs by HPLC; type: ADME, organism-based, Urine; details: in vivo
# [18] = Metabolic stability in Sprague-Dawley rat assessed as urinary excretion of unchanged drug level at 200 mg/kg, po after 0 to 8 hrs by HPLC; type: ADME, organism-based; details: urine, read-out: Activity
# Rattus norvegicus [19] = assay: Metabolic stability in Sprague-Dawley rat assessed as urinary excretion of trans-ferulic acid 4-O-sulfate level at 200 mg/kg, po after 0 to 8 hrs by HPLC; type: ADME, organism-based, Urine; details: in vivo
# Rattus norvegicus [20] = assay: Metabolic stability in Sprague-Dawley rat assessed as urinary excretion of m-hydroxyphenyl-propionic acid level at 200 mg/kg, po after 0 to 72 hrs by HPLC; type: ADME, organism-based, Urine; details: in vivo
# Rattus norvegicus [21] = assay: Metabolic stability in Sprague-Dawley rat assessed as urinary excretion of m-hydroxyphenyl-propionic acid level at 200 mg/kg, po after 0 to 36 hrs by HPLC; type: ADME, organism-based, Urine; details: in vivo
# Rattus norvegicus [22] = assay: Metabolic stability in Sprague-Dawley rat assessed as urinary excretion of trans-ferulic acid 4-O-sulfate level at 200 mg/kg, po after 0 to 12 hrs by HPLC; type: ADME, organism-based, Urine; details: in vivo
# Rattus norvegicus [23] = assay: Metabolic stability in Sprague-Dawley rat assessed as urinary excretion of trans-caffeic acid 4-O-sulfate level at 200 mg/kg, po after 0 to 48 hrs by HPLC; type: ADME, organism-based, Urine; details: in vivo
# Rattus norvegicus [24] = assay: Metabolic stability in Sprague-Dawley rat assessed as urinary excretion of trans-m-coumaric acid level at 200 mg/kg, po after 0 to 48 hrs by HPLC; type: ADME, organism-based, Urine; details: in vivo
# [25] = Metabolic stability in Sprague-Dawley rat assessed as urinary excretion of unchanged drug level at 200 mg/kg, po after 0 to 24 hrs by HPLC; type: ADME, organism-based; details: urine, read-out: Activity
# Rattus norvegicus [26] = assay: Metabolic stability in Sprague-Dawley rat assessed as urinary excretion of trans-ferulic acid 4-O-sulfate level at 200 mg/kg, po after 0 to 36 hrs by HPLC; type: ADME, organism-based, Urine; details: in vivo
smiles,measurement,setting,value
O=C(/C=C/c1ccc(O)c(O)c1)O[C@H](Cc1ccc(O)c(O)c1)C(=O)O [ROSMARINIC ACID],Activity,Rattus norvegicus [1],0.117%
same,Activity,Rattus norvegicus [2],0.027%
same,Activity,Rattus norvegicus [3],0.139%
same,Activity,Rattus norvegicus [4],0.1%
same,Activity,Rattus norvegicus [5],5.252%
same,Activity,Rattus norvegicus [6],6.241%
same,dose excreted,[7],0.077%
same,Activity,Rattus norvegicus [8],0.949%
same,Activity,Rattus norvegicus [9],0.174%
same,Activity,Rattus norvegicus [10],0.086%
same,Activity,Rattus norvegicus [11],0.037%
same,Activity,Rattus norvegicus [12],31.836%
same,Activity,Rattus norvegicus [13],0.063%
same,Activity,Rattus norvegicus [14],0.17%
same,dose excreted,[15],0.077%
same,Activity,Rattus norvegicus [16],0.124%
same,Activity,Rattus norvegicus [17],0.081%
same,dose excreted,[18],0.077%
same,Activity,Rattus norvegicus [19],0.284%
same,Activity,Rattus norvegicus [20],18.357%
same,Activity,Rattus norvegicus [21],17.43%
same,Activity,Rattus norvegicus [22],0.462%
same,Activity,Rattus norvegicus [23],0.154%
same,Activity,Rattus norvegicus [24],0.413%
same,dose excreted,[25],0.077%
same,Activity,Rattus norvegicus [26],0.559%
